Experimental data published in ChEMBL document CHEMBL1201862, “PubChem BioAssay data set” (2004).
Active and inactive are the calls of the source. Unless noted, the calls are words filed in the database; no cut-off is given here.

Assays:
[1] = molecular target: Keap1/Nrf2 (Homo sapiens, UniProt Q14145); assay: disruptors of Keap1 binding to Nrf2 peptide – biochemical, fluorescence polarization, cherry-picked samples, dose response (AID 588683)
[2] = tested on: Streptococcus sp. 'group A'; assay: Streptococcus pyogenes SK(-)GAS viability under kanamycin – luminescence, BacTiterGlo, confirmation, counter-screen for streptokinase expression inhibitor project, dose response (AID 1900); format: functional, organism-based
[3] = molecular target: Induced myeloid leukemia cell differentiation protein Mcl-1 (Homo sapiens, UniProt Q07820); format: functional
[4] = tested on: Streptococcus; assay: GAS UMAA2166 growth inhibition – luminescence, BacTiterGlo, counter-screen for streptokinase expression inhibitor project, dose response (AID 1915); format: functional, organism-based;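 further: potency for reduction of bacterial viability or growth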
[5] = molecular target: T1, Apoptotic protease-activating factor 1 (Homo sapiens, UniProt O14727); assay: activation of Apaf-1 mediated apoptosis – fluorescent, uHTS hits, dose response (AID 588554); format: functional
T1 sequence (O14727 whole entry): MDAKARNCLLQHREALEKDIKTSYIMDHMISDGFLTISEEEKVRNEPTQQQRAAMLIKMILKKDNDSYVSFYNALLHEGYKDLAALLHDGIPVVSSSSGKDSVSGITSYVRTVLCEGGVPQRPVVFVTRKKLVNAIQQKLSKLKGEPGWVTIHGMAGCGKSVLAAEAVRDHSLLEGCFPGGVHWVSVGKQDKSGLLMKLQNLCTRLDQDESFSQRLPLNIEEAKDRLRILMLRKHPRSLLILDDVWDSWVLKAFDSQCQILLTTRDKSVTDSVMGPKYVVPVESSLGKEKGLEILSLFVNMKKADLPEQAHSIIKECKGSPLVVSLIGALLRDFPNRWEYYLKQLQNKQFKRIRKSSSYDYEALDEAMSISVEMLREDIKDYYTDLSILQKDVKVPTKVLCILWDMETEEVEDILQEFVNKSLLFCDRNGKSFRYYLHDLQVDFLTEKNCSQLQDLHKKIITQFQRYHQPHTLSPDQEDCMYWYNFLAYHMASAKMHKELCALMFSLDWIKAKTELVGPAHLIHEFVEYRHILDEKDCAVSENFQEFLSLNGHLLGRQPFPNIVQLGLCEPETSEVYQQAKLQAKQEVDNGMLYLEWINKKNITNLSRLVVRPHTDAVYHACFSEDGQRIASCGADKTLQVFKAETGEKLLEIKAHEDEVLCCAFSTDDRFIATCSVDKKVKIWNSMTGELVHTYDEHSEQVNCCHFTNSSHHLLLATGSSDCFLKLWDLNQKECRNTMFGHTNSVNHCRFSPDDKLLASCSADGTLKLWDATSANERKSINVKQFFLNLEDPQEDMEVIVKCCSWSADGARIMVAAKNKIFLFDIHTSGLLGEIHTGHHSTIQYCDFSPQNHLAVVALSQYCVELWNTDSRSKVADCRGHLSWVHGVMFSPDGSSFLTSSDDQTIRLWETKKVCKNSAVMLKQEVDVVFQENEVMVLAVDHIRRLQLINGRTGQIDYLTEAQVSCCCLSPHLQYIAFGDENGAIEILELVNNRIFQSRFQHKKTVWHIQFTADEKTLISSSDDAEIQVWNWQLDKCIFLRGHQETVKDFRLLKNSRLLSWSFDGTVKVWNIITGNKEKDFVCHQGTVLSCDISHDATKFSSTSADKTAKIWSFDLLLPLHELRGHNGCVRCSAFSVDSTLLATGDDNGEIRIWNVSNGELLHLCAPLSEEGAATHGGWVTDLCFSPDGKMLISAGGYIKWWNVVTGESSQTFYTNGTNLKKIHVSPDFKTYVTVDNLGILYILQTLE

[6] = molecular target: 26S proteasome non-ATPase regulatory subunit 14 (Homo sapiens, UniProt O00487); assay: inhibition of proteasome subunit RPN11 – biochemical, fluorescence polarization, uHTS hits, confirmation (AID 602368); format: functional
[7] = molecular target: 72 kDa type IV collagenase (Homo sapiens, UniProt P08253); assay: Dose Response validation of uHTS RPN11 inhibitor hits using a MMP-2 Fluorescence assay.; format: functional
[8] = molecular target: Prothrombin (Bos taurus, UniProt P00735); assay: thrombin protease inhibitors – biochemical, fluorescence polarization, uHTS hits, dose response (AID 602369); format: functional
[9] = molecular target: T2, Short transient receptor potential channel 4 (Mus musculus, UniProt Q9QUQ5); assay: SAR Analysis for the identification of selective inhibits of the transient receptor potential cation channel C4 (TRPC4): Automated Electrophysiology. [Related pubchem assays (depositor defined):AID2256]; format: functional
T2 sequence (Q9QUQ5 whole entry): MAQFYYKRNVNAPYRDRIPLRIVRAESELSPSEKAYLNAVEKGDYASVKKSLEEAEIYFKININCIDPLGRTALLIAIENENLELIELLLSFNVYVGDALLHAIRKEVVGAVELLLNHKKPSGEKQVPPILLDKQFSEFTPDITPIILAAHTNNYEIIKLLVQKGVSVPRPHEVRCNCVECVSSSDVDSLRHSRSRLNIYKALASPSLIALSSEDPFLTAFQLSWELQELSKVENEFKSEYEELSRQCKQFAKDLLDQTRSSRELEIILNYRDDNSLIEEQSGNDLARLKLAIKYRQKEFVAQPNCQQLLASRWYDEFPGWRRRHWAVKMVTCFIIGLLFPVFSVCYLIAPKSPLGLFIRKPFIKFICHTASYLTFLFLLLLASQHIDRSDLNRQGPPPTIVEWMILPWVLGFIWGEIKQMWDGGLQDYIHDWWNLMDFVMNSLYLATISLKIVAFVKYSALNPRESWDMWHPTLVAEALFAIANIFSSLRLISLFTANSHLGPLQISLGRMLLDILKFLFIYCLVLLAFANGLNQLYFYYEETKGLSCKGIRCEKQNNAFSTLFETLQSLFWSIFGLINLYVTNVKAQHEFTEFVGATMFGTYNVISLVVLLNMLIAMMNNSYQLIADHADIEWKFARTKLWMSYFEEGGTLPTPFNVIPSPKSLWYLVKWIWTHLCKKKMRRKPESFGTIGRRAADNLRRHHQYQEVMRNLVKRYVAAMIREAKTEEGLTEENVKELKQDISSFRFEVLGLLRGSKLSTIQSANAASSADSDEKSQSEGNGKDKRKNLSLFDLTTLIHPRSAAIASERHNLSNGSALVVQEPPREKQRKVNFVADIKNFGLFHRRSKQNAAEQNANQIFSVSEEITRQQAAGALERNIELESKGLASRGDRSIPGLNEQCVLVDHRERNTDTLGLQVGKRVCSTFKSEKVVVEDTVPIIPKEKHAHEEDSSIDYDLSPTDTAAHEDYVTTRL

[10] = molecular target: Short transient receptor potential channel 6 (Mus musculus, UniProt Q61143); assay: mouse TRPC6 channel blockers, concentration series – HEK293 cells, membrane potential dye, IC50, selectivity assay for selective TRPC4 inhibitor project, dose response (AID 492987); format: functional, cell-based
[11] = molecular target: T2, Short transient receptor potential channel 4; assay: potency of mouse TRPC4 calcium flux blockers – cell-based, HEK293 TRPC4/mu-opioid, DAMGO stimulus, Fluo-4, dose response (AID 492994); format: functional
[12] = tested on: Vero; assay: Vero E6 cell cytotoxicity, dose response, cytotoxicity control (AID 540298); format: functional; settings: Chlorocebus sabaeus
[13] = tested on: MDCK; assay: MDCK cell cytotoxicity, dose response, cytotoxicity control (AID 540296); format: functional; settings: Canis lupus familiaris
[14] = tested on: MDCK; assay: antiviral activity against H1N1 influenza, dose response, cell-based, strain KY136 (AID 540257); format: functional; settings: Canis lupus familiaris
[15] = molecular target: NS3 (Hepatitis C virus, UniProt A3EZJ3); assay: PubChem AID 2173; set-up: species or system Hepacivirus hominis
[16] = Late-stage probe development counterscreen for inhibitors of the Hepatitis C Virus non-structural protein 3 helicase (NS3): luminescence-based cell-based dose response assay to determine whether compounds that inhibit replication of HCV RNA replicon are cytotoxic. [Related pubchem assays (depositor defined):AID1800, AID1830, AID1845, AID1943, AID1945, AID2172, AID2173, AID2474, AID2476]; format: functional
[17] = molecular target: Dual specificity protein phosphatase 3 (Homo sapiens, UniProt P51452); assay: SAR VHR1 Fluorescent Assay for In Vitro dose response studies Set 3. [Related pubchem assays (depositor defined):AID1654, AID1661, AID1878]; format: functional
Chain of Dual specificity protein phosphatase 3 (P51452 whole entry): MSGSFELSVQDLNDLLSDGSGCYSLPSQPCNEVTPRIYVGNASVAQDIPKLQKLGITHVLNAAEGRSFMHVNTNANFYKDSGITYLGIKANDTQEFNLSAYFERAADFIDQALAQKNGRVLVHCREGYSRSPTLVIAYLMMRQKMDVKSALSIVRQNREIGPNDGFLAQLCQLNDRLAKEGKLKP

Chain of Keap1/Nrf2 (Q16236 whole entry): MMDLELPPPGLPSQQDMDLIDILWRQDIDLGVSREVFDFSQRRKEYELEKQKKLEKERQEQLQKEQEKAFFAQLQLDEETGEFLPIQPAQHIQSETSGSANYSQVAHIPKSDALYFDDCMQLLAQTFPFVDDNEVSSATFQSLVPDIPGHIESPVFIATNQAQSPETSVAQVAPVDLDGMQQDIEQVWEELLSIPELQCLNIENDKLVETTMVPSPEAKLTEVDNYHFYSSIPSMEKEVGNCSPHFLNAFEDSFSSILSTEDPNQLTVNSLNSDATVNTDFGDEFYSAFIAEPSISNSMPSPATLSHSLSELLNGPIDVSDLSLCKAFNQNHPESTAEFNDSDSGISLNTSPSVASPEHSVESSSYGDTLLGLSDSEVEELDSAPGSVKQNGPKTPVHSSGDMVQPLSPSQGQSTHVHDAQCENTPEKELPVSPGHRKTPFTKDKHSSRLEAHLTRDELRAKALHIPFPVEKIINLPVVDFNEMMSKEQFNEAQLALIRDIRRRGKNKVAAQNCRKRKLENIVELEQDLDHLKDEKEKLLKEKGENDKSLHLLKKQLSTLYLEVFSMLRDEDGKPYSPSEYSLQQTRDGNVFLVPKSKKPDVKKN
Chain of Keap1/Nrf2 (Q14145 whole entry): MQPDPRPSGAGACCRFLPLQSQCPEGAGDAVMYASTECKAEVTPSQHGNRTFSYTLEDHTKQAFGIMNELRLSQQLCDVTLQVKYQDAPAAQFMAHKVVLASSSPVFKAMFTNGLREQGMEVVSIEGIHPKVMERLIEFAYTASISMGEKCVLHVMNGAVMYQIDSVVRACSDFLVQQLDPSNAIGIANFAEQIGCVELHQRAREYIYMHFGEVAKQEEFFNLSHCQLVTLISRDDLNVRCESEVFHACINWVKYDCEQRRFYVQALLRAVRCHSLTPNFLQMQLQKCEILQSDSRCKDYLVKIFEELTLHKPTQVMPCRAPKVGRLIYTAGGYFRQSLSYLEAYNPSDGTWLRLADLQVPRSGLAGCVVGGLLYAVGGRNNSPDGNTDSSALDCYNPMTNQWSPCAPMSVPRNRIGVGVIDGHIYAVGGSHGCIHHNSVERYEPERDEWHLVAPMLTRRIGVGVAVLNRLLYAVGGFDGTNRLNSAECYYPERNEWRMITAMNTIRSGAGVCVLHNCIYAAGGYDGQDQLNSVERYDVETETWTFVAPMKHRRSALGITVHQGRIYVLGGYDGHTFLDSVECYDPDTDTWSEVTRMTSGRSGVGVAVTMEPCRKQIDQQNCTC
Chain of 26S proteasome non-ATPase regulatory subunit 14 (O00487 whole entry): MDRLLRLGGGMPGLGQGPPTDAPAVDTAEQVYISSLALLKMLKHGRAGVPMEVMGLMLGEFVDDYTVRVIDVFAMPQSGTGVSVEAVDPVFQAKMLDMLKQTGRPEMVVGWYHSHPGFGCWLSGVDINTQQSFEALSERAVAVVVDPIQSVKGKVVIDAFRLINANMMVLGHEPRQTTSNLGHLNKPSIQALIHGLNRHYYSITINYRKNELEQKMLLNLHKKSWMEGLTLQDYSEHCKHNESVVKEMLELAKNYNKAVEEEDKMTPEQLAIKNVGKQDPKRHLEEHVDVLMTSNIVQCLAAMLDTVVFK
Chain of NS3 (A3EZJ3 whole entry): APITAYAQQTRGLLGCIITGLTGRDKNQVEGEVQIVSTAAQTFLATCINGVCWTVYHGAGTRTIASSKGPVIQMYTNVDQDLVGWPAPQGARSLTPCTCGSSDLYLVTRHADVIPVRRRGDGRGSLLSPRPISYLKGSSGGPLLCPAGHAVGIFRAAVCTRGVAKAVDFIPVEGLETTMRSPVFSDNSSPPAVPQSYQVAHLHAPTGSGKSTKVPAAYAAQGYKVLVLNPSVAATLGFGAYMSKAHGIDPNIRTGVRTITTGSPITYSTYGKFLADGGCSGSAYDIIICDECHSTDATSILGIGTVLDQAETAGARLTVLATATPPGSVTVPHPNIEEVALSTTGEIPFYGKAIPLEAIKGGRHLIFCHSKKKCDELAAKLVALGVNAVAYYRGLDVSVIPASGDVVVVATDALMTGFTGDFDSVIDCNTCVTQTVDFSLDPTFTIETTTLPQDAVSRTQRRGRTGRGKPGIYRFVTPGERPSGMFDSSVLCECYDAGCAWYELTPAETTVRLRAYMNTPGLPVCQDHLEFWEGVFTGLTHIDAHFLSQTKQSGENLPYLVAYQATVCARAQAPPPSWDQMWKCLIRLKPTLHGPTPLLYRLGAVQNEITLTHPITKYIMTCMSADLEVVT
Chain of Induced myeloid leukemia cell differentiation protein Mcl-1 (Q07820 whole entry): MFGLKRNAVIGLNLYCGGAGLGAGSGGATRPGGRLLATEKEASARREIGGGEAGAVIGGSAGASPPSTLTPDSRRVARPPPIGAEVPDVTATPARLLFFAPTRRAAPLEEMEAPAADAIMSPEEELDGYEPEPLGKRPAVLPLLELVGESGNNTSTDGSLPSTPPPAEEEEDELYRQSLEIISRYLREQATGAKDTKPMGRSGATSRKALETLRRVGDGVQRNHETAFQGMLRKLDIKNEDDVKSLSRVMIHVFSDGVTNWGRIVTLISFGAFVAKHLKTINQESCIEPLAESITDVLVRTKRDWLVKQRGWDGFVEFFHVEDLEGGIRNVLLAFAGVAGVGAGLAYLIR
Chain of 72 kDa type IV collagenase (P08253 whole entry): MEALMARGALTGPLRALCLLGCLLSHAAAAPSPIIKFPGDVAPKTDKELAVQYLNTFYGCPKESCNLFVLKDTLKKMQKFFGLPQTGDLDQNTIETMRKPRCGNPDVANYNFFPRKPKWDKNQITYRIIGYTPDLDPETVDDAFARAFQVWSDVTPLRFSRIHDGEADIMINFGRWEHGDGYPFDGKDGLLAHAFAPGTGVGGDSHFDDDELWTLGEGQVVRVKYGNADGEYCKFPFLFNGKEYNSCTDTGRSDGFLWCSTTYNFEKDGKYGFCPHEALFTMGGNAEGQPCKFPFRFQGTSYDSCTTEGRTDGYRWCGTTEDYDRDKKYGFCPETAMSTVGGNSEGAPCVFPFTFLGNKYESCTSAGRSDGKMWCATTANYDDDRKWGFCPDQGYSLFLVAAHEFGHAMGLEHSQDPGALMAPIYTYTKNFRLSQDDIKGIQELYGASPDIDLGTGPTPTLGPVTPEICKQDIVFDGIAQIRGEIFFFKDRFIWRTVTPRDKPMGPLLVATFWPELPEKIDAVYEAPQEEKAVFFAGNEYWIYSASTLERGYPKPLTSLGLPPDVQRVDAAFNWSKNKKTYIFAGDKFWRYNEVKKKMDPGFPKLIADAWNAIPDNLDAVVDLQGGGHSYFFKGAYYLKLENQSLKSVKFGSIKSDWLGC
Chain of Short transient receptor potential channel 6 (Q61143 whole entry): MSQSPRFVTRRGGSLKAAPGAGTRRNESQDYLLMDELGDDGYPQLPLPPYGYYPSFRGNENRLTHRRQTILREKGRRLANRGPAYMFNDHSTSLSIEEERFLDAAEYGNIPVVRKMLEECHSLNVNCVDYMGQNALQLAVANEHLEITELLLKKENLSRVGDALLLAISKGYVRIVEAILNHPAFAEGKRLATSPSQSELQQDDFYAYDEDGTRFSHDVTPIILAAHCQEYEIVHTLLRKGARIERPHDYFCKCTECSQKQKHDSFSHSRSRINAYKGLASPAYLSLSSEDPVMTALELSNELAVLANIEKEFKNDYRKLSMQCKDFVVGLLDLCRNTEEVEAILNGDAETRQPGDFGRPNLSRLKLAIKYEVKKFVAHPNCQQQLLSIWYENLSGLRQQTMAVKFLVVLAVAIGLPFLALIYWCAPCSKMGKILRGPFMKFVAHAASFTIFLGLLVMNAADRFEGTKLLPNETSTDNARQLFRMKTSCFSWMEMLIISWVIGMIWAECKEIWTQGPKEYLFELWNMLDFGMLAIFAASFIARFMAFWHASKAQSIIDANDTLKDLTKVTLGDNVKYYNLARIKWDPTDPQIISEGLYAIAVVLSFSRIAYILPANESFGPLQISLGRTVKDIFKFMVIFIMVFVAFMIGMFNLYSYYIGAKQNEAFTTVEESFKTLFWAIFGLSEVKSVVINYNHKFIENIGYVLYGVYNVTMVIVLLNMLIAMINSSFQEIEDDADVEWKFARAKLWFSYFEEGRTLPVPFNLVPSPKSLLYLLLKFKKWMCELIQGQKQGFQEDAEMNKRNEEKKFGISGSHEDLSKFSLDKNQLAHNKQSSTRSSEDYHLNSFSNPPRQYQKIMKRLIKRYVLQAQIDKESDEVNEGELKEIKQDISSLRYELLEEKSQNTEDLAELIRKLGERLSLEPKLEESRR

Structure (SMILES): COc1cc(OC)c(S(=O)(=O)Nc2ccccc2C(=O)O)cc1S(=O)(=O)Nc1ccccc1C(=O)O
- AC50 [1]: > 52 µM (inactive)

Structure (SMILES): O=C(O)CCCN1C(=O)/C(=C\c2ccc(-c3nc4ccccc4s3)o2)SC1=S
- EC50 [2]: 3.67 µM (active)
- IC50 [3]: 1.38 µM (active)
- EC50 [4]: 7.32 µM (active)
- EC50 [5]: 5.12 µM (active)
- IC50 [6]: 5.31 µM (active)
- IC50 [7]: > 100 µM (inactive)
- IC50 [8]: 70.3 µM (active)

Structure (SMILES): Cc1ccc2nc(N3CCCCC3)cc(C)c2c1
- IC50 [9]: 5.49 µM (active)
- IC50 [10]: 8.58 µM (active)
- IC50 [11]: 10.2 µM (active)

Structure (SMILES): CC1CCN(c2nc(NCc3ccco3)nc(N)c2[N+](=O)[O-])CC1
- CC50 [12]: > 40 µM (active)
- CC50 [13]: 11.4 µM (active)
- IC50 [14]: 2.57 µM (active)

Structure (SMILES): Cc1ccc(C(=O)C2=C(O)C(=O)N(Cc3ccco3)C2c2cccc(Cl)c2)o1 (configuration not stated)
- IC50 [15]: 5.36 µM (active)
- CC50 [16]: > 100 µM (inactive)

Structure (SMILES): COc1cccc2sc(NC(=O)c3ccc(C#N)cc3)nc12
- IC50 [17]: 57.6 µM (active)
